What all share (experiment): biochemical
Experiment [1] concerns the target T1, serotonin transporter (SERT) (Rattus norvegicus, UniProt P31652).
T1 construct: brains were processed to yield synaptosomes as previously described; from tissue; host or cells: rat whole brain minus caudate and cerebellum, synaptosomes

For experiment [2], the target named is T2, norepinephrine transporter (NET) (Rattus norvegicus, UniProt Q63380).
T2 construct: brains were processed to yield synaptosomes as previously described; from tissue; host or cells: rat whole brain minus caudate and cerebellum, synaptosomes
T2 sequence (Q63380 1-617): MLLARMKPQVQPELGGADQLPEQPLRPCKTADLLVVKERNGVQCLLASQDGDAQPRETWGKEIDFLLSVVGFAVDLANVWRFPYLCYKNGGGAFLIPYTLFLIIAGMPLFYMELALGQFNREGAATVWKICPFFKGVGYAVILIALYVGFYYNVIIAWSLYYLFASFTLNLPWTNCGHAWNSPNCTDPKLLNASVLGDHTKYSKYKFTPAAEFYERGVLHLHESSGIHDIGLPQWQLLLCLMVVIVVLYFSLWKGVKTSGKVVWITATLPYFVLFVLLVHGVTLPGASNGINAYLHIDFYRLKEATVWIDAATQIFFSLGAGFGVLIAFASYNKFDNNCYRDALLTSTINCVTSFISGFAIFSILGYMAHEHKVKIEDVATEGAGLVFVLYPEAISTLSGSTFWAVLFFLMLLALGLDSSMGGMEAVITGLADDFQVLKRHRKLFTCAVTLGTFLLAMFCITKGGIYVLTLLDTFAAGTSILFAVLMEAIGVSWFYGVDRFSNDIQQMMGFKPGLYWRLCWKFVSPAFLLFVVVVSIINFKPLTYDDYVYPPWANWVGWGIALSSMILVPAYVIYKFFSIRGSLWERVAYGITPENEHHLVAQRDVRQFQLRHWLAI
Type of experiment: biochemical.

For experiment [3], the target named is T3, dopamine transporter (DAT) (Rattus norvegicus, UniProt P23977).
T3 construct: brains were processed to yield synaptosomes as previously described; from tissue; host or cells: rat caudate synaptosomes
T3 sequence (P23977 whole entry): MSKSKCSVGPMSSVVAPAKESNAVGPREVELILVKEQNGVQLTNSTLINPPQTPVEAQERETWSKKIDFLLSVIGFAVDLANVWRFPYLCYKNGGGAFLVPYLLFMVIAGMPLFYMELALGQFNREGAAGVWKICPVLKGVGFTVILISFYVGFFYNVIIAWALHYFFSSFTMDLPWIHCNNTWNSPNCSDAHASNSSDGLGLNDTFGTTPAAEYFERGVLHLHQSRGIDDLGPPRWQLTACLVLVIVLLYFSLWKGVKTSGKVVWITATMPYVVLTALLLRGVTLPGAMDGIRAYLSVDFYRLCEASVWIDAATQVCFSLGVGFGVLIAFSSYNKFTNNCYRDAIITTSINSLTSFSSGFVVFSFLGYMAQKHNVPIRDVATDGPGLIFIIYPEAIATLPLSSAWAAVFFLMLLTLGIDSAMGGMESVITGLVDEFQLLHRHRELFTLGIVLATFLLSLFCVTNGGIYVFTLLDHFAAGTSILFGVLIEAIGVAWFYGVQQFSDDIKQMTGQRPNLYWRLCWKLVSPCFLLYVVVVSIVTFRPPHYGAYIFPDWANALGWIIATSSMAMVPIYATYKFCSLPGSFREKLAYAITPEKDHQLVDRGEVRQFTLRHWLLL

For orientation: IC50 means the concentration needed to halve the response being measured.

Bridge positions count the residues as written; N and C are the ends. Peptide text beside a SMILES is read from it. A value given as a limit tells only on which side of the number the result lay.

T1 sequence (P31652 whole entry): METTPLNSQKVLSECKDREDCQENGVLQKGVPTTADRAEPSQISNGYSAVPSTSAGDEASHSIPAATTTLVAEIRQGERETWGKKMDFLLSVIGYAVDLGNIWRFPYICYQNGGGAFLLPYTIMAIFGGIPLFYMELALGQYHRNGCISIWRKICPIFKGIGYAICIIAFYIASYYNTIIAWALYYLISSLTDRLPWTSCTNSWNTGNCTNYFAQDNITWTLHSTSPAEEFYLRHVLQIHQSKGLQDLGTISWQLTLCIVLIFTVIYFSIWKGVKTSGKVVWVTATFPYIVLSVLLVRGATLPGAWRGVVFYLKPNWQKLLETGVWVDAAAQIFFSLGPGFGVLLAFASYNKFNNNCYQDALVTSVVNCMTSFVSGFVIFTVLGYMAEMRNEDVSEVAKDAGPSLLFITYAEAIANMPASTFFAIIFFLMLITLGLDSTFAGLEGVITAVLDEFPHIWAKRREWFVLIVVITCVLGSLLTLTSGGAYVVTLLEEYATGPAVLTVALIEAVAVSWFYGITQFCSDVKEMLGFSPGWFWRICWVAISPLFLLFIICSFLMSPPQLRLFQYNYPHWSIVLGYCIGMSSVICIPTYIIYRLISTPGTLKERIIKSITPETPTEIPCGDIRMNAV

As for `CSCC[C@H](NC(=O)[C@H](CCCNC(=N)N)NC(=O)[C@H](Cc1ccc(O)cc1)NC(=O)CNC(=O)[C@@H]1CSSC[C@H](NC(=O)[C@@H](NC(=O)[C@@H](N)CO)[C@@H](C)O)C(=O)N1)C(=O)N[C@H]1CSSC[C@@H](C(N)=O)NC(=O)[C@@H]2CCCN2C(=O)[C@H](C(C)C)NC1=O` [PnID C] (H-STCCGYRMCVPC-NH2; disulfide 3-4, 9-12; N-terminus assumed), the concentration for half-maximal inhibition (IC50) in experiment [1], in experiment [2] and in experiment [3] was over 100 µM in each case. Moreover, in experiment [2], the “activity at NET relative to ribbon isomer (in words)” value was “much less active in inhibiting the rat NET”. Moreover, the “biological activity (in words)” value in experiment [2] is “did not display any measurable biological activity”.

The values are drawn from paper PMC9964023 (Marine Drugs, 2023).
